Measured values reported in patent US20240083857A1, “2-Methyl-Quinazolines” (Bayer Pharma Aktiengesellschaft, priority 2017, published 2024).

Legend:
[1] = target: K-Ras^G12C : hSOS1 interaction (Homo sapiens, UniProt Q07889); experiment: Biochemical assay 1: K-Ras^G12C interaction assay with hSOS1 (HTRF); assay type: binding; conditions: for IC50: read-out: Assay 1 (KRAS-SOS Interaction) activity expressed as IC50; for inhibition at 20 µM: read-out: Assay 1 (KRAS-SOS Interaction) activity expressed as % inhibition at 20 μM
[2] = target: human SOS1 (nucleotide exchange of K-Ras^G12C) (Homo sapiens, UniProt Q07889); experiment: Biochemical assay 2: K-Ras^G12C activation assay by hSOS1 at high GTP concentration (HTRF); conditions: high GTP; for IC50: read-out: Assay 2 (KRAS-Activation by SOS high GTP) activity expressed as IC50; for inhibition at 20 µM: read-out: Assay 2 (KRAS-Activation by SOS high GTP) activity expressed as % inhibition at 20 μM
[3] = target: human SOS1 (loading of human K-Ras^G12C-GDP with fluorescent GTP-analog) (Homo sapiens, UniProt Q07889); experiment: Biochemical assay 3: K-Ras^G12C activation assay by hSOS1 (HTRF); conditions: no GTP; for IC50: read-out: Assay 3 (KRAS-Activation by SOS no GTP) activity expressed as IC50; for inhibition at 20 µM: read-out: Assay 3 (KRAS-Activation by SOS no GTP) activity expressed as % inhibition at 20 μM

Compound	IC50 [1] [µM]	IC50 [2] [µM]	IC50 [3] [µM]	inhibition at 20 µM [1] [%]	inhibition at 20 µM [2] [%]	inhibition at 20 µM [3] [%]
COc1cc2nc(C)nc(N[C@@H](C)c3ccc(-c4ccoc4)s3)c2cc1OC (racemic) [Example 153, N-{1-[5-(furan-3-yl)thiophen-2-yl]ethyl}-6,7-dimethoxy-2-methylquinazolin-4-amine]	2.35	2.73	4.1			
COc1cc2nc(C)nc(N[C@@H](C)c3ccc(-c4csc5ccccc45)s3)c2cc1OC (racemic) [Example 154, N-{1-[5-(1-benzothiophen-3-yl)thiophen-2-yl]ethyl}-6,7-dimethoxy-2-methylquinazolin-4-amine]	7.82	8.78	12.9			
COc1cc2nc(C)nc(N[C@@H](C)c3ccc(-c4cc5ccccc5n4C)s3)c2cc1OC (racemic) [Example 155, 6,7-dimethoxy-2-methyl-N-{1-[5-(1-methyl-1H-indol-2-yl)thiophen-2-yl]ethyl}quinazolin-4-amine]	0.992	1.47	1.64			
CCC/C=C/c1ccc([C@H](C)Nc2nc(C)nc3cc(OC)c(OC)cc23)s1 (racemic) [Example 156, 6,7-dimethoxy-2-methyl-N-[1-{5-[(1E)-pent-1-en-1-yl]thiophen-2-yl}ethyl]quinazolin-4-amine]	4.12	5.76	10.8			
COc1cc2nc(C)nc(N[C@@H](C)c3ccc(/C=C/C4CCCCC4)s3)c2cc1OC (racemic) [Example 157, N-[1-{5-[(E)-2-cyclohexylethenyl]thiophen-2-yl}ethyl]-6,7-dimethoxy-2-methylquinazolin-4-amine]				44	19	12
COc1cc2nc(C)nc(N[C@@H](C)c3ccc(-c4cccc(/C=C/C#N)c4)s3)c2cc1OC (racemic) [Example 160, (2E)-3-[3-(5-{1-[(6,7-dimethoxy-2-methylquinazolin-4-yl)amino]ethyl}thiophen-2-yl)phenyl]prop-2-enenitrile]	16.1				33	13
COc1cc2nc(C)nc(N[C@@H](C)c3ccc(-c4ccc(C)cc4C)s3)c2cc1OC (racemic) [Example 161, N-{1-[5-(2,4-dimethylphenyl)thiophen-2-yl]ethyl}-6,7-dimethoxy-2-methylquinazolin-4-amine]	4.17	3.97	7			
COc1cc2nc(C)nc(N[C@@H](C)c3ccc(-c4ccc(C(C)=O)s4)s3)c2cc1OC (racemic) [Example 162, 1-(5′-{1-[(6,7-dimethoxy-2-methylquinazolin-4-yl)amino]ethyl}-2,2′-bithiophen-5-yl)ethanone]	8.76	11.6	16			
COc1cc2nc(C)nc(N[C@@H](C)c3ccc(-c4ccccc4NC(C)=O)s3)c2cc1OC (racemic) [Example 166, N-[2-(5-{1-[(6,7-dimethoxy-2-methylquinazolin-4-yl)amino]ethyl}thiophen-2-yl)phenyl]acetamide]	1.8	3.68	4.99			
COc1cc2nc(C)nc(N[C@@H](C)c3ccc(-c4ccccc4S(=O)(=O)N(C)C)s3)c2cc1OC (racemic) [Example 169, 2-(5-{1-[(6,7-dimethoxy-2-methylquinazolin-4-yl)amino]ethyl}thiophen-2-yl)-N,N-dimethylbenzenesulfonamide]	2.16	3.7	4.53			
COc1cc2nc(C)nc(N[C@@H](C)c3ccc(-c4cccc5[nH]ccc45)s3)c2cc1OC (racemic) [Example 171, N-{1-[5-(1H-indol-4-yl)thiophen-2-yl]ethyl}-6,7-dimethoxy-2-methylquinazolin-4-amine]	5.59	3.37	7.18			
COc1ncc(-c2ccc([C@H](C)Nc3nc(C)nc4cc(OC)c(OC)cc34)s2)cn1 (racemic) [Example 172, 6,7-dimethoxy-N-{1-[5-(2-methoxypyrimidin-5-yl)thiophen-2-yl]ethyl}-2-methylquinazolin-4-amine]	4.07	7.33	9.19			
COc1cc2nc(C)nc(N[C@@H](C)c3ccc(-c4ccc5c(c4)CCO5)s3)c2cc1OC (racemic) [Example 174, N-{1-[5-(2,3-dihydro-1-benzofuran-5-yl)thiophen-2-yl]ethyl}-6,7-dimethoxy-2-methylquinazolin-4-amine]	6.92	9.28	18.3			
COc1cc2nc(C)nc(N[C@@H](C)c3ccc(/C=C/c4ccccc4)s3)c2cc1OC (racemic) [Example 175, 6,7-dimethoxy-2-methyl-N-[1-{5-[(E)-2-phenylethenyl]thiophen-2-yl}ethyl]quinazolin-4-amine]	17.6				50	44
C/C=C/c1ccc([C@H](C)Nc2nc(C)nc3cc(OC)c(OC)cc23)s1 (racemic) [Example 177, 6,7-dimethoxy-2-methyl-N-[1-{5-[(1E)-prop-1-en-1-yl]thiophen-2-yl}ethyl]quinazolin-4-amine]	5.77	6.7				49
COc1cc2nc(C)nc(NC(C)c3ccc(-c4ccccc4)o3)c2cc1OC (single isomer, unassigned) [Example 224, 6,7-dimethoxy-2-methyl-N-[1-(5-phenylfuran-2-yl)ethyl]quinazolin-4-amine, enantiomer]	3.6	2.55	9.37			
COc1cc2nc(C)nc(N[C@H](C)c3cc4cccc(OC)c4o3)c2cc1OC (stereo in doubt) [Example 33, 6,7-dimethoxy-N-[1-(7-methoxy-1-benzofuran-2-yl)ethyl]-2-methylquinazolin-4-amine]				53	24	9
COc1cc2nc(C)nc(N[C@@H](C)c3ccc(-c4ccc(N5CCOCC5)cc4)s3)c2cc1OC (stereo in doubt) [Example 43, 6,7-dimethoxy-2-methyl-N-[1-{5-[4-(morpholin-4-yl)phenyl]thiophen-2-yl}ethyl]quinazolin-4-amine]				30	14	16
COc1cc2nc(C)nc(N[C@@H](C)c3ccc(-c4cccc(N5CCOCC5)c4)s3)c2cc1OC (stereo in doubt) [Example 44, 6,7-dimethoxy-2-methyl-N-[1-{5-[3-(morpholin-4-yl)phenyl]thiophen-2-yl}ethyl]quinazolin-4-amine]				55	47	25
CCCOc1ccccc1-c1ccc([C@H](C)Nc2nc(C)nc3cc(OC)c(OC)cc23)s1 (stereo in doubt) [Example 47, 6,7-dimethoxy-2-methyl-N-{1-[5-(2-propoxyphenyl)thiophen-2-yl]ethyl}quinazolin-4-amine]				40	22	17
COc1cc2nc(C)nc(N[C@@H](C)c3ccc(-c4ccccc4)s3)c2cc1OC (stereo in doubt) [Example 70, 6,7-dimethoxy-2-methyl-N-[1-(5-phenylthiophen-2-yl)ethyl]quinazolin-4-amine]	6.82	8.62				47
COc1cc2nc(C)nc(N[C@@H](C)c3ccc(-c4cc(Cl)cc(Cl)c4)s3)c2cc1OC (stereo in doubt) [Example 122, N-{1-[5-(3,5-dichlorophenyl)thiophen-2-yl]ethyl}-6,7-dimethoxy-2-methylquinazolin-4-amine]				46	17	21
COc1cc2nc(C)nc(N[C@@H](C)c3ccc(-c4cccc(-c5nnc(C)o5)c4)s3)c2cc1OC (stereo in doubt) [Example 126, 6,7-dimethoxy-2-methyl-N-[1-{5-[3-(5-methyl-1,3,4-oxadiazol-2-yl)phenyl]thiophen-2-yl}ethyl]quinazolin-4-amine]				52	31	11
COc1cc(F)cc(-c2ccc([C@H](C)Nc3nc(C)nc4cc(OC)c(OC)cc34)s2)c1 (stereo in doubt) [Example 134, N-{1-[5-(3-fluoro-5-methoxyphenyl)thiophen-2-yl]ethyl}-6,7-dimethoxy-2-methylquinazolin-4-amine]				43	23	27
COc1cc2nc(C)nc(N[C@@H](C)c3ccc(-c4cccc(OCc5ccccc5)c4)s3)c2cc1OC (stereo in doubt) [Example 135, N-[1-{5-[3-(benzyloxy)phenyl]thiophen-2-yl}ethyl]-6,7-dimethoxy-2-methylquinazolin-4-amine]				28	5	13
CCCCOc1cccc(F)c1-c1ccc([C@H](C)Nc2nc(C)nc3cc(OC)c(OC)cc23)s1 (stereo in doubt) [Example 136, N-{1-[5-(2-butoxy-6-fluorophenyl)thiophen-2-yl]ethyl}-6,7-dimethoxy-2-methylquinazolin-4-amine]				37	20	18
COc1cc2nc(C)nc(N[C@@H](C)c3ccc(-c4ccc(C(C)(C)C#N)cc4)s3)c2cc1OC (stereo in doubt) [Example 137, 2-[4-(5-{1-[(6,7-dimethoxy-2-methylquinazolin-4-yl)amino]ethyl}thiophen-2-yl)phenyl]-2-methylpropanenitrile]				48	36	32
